target: DDR1 (Homo sapiens (Human), UniProt Q08345); assay: DDR1 kinase inhibition assay (FAM-labeled peptide), IC50; assay type: biochemical
Method: 1× kinase base buffer (50 mM HEPES, pH 7.5, 0.0015% Brij-35) and a stop buffer (100 mM HEPES, pH 7.5, 0.015% Brij-35, 0.2% Coating Reagent #3, 50 mM EDTA) were prepared for testing kinases.
The compounds were diluted with 100% DMSO to 100 times the highest final inhibitor concentration required in the reaction. 100 μl of dilution of the compound was transferred to wells of a 96-well plate. For example, 100000 nM solution of the compound in DMSO was prepared in this step in case that an inhibitor concentration of 1000 nM is required. 100 μl of 100% DMSO was added to two empty wells of a 96-well plate for no compound control and no enzyme control. This plate was labeled as the source plate. A new 96-well plate with 5 μl of compound transferred from the source plate is used as an intermediate plate. 95 μl of 1× kinase buffer was added to each well of the intermediate plate. The compounds in the intermediate plate was mixed on a shaker for 10 minutes.
5 μl of sample in each well from the 96-well intermediate plate was transferred to the 384-well plate in duplicate. For example, well A1 of the 96-well plate was transferred to wells A2 and A1 of the 384-well plate, and well A2 of the 96-well plate was transferred to wells A3 and A4 of the 384-well plate, and so forth. 2.5× enzyme solution was prepared: 1× kinase basal buffer with added kinase. 2.5× peptide solution was prepared: 1× kinase basal buffer with added FAM-labeled peptide and ATP. To an assay plate already contained 5 μl of 10% dimethyl sulfoxide compound, 2.5× enzyme solution was transferred, and each well of the 384-well assay plate was added 10 μl of 2.5× enzyme solution. After incubation at room temperature for 10 minutes, 2.5× peptide solution was transferred to the assay plate. Each well of the 384-well assay plate was added 10 μl of 2.5× peptide solution. Kinase reaction and termination: incubation at 28° C. for a specified period followed by the addition of 25 μl stop buffer to stop the reaction. The data was read and collected.

Sequence of DDR1 (Q08345 other isoform, or with tags, fused parts or gaps isoform Q08345-2): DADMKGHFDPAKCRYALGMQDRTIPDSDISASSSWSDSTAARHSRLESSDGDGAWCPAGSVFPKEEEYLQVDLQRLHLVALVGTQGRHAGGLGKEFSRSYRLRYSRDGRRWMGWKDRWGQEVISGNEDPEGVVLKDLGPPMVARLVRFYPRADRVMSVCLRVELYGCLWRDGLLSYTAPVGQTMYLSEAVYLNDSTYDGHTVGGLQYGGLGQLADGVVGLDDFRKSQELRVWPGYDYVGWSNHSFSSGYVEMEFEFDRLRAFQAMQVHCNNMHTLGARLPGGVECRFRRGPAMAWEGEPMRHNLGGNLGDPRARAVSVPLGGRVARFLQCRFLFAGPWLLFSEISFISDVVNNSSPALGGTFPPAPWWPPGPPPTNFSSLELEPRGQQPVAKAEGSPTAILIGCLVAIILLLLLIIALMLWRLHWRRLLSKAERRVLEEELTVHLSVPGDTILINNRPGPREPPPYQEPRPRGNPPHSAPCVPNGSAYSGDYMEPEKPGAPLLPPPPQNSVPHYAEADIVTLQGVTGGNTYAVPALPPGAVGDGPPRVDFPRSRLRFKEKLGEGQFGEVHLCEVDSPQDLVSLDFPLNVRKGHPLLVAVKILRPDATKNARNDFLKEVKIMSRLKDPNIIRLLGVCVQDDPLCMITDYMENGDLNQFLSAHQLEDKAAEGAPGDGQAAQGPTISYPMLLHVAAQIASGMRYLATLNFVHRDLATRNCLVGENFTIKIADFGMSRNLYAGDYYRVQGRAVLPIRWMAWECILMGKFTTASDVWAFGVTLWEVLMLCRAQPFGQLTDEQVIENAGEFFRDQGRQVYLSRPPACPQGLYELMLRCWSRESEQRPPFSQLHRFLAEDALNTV

IC50	Compound
> 1000 nM	O=C(N[C@H]1CC[C@H](O)CC1)c1ccc2ccc(-c3ccc(NC4CCCCC4)cc3)cc2n1 [DC1, reference compound]
< 500 nM	Cc1ccc(C(=O)Nc2ccccn2)cc1-c1cccc(-c2cnc3cc(C4=CCCCC4)cnn23)c1 [Compound C11]
< 500 nM	CC(C)c1ccc(C(=O)Nc2ccccn2)cc1C#Cc1cnc2cc(C3=CCCCC3)cnn12 [Compound C10]
< 500 nM	Cc1ccc(C(=O)Nc2ccccn2)cc1C#Cc1cnc2cc(C3CCCCC3)cnn12 [Compound C2]
< 500 nM	Cc1ccc(C(=O)Nc2ccccn2)cc1C#Cc1cnc2cc(C3CC=CC3)cnn12 [Compound C8]
< 500 nM	Cc1ccc(C(=O)Nc2ccccn2)cc1C#Cc1cnc2cc(C3CC=CCC3)cnn12 (stereo not drawn) [Compound C4]
< 500 nM	Cc1ccc(C(=O)Nc2ccccn2)cc1C#Cc1cnc2cc(C3CCCC3)cnn12 [Compound C5]
< 500 nM	Cc1ccc(C(=O)Nc2ccccn2)cc1C#Cc1cnc2cc(C3C=CCC3)cnn12 (stereo not drawn) [Compound C7]
< 500 nM	Cc1ccc(C(=O)Nc2ccccn2)cc1C#Cc1cnc2cc(C3C=CCCC3)cnn12 (stereo not drawn) [Compound C3]
< 500 nM	CCc1ccc(C(=O)Nc2ccccn2)cc1C#Cc1cnc2cc(C3=CCCCC3)cnn12 [Compound C9]
< 500 nM	Cc1ccc(C(=O)Nc2ccccn2)cc1C#Cc1cnc2cc(C3=CCCC3)cnn12 [Compound C6]
< 500 nM	Cc1cc(-c2cc(C(=O)Nc3ccccn3)ccc2C)cc(-c2cnc3cc(C4=CCCCC4)cnn23)c1 [Compound C12]
